Data on one compound can be found in paper PMC5820429 (Influenza and Other Respiratory Viruses, 2018).

Structures are written as SMILES.

Details of the assay: species or system patients. To be noted: in vivo.

Take `CCOC(=O)C1=C[C@@H](OC(CC)CC)[C@H](NC(C)=O)[C@@H](N)C1` [oseltamivir]: the “Time to alleviation of symptoms, shorter in treated vs non‐treated patients” value was 1 days.
